Laboratory results published in ChEMBL document CHEMBL5727378, “Benzenesulfonamide derivatives as inverse agonists of retinoid-related orphan receptor gamma (RORγ(T))” (2019).

Molecular target: T1, Nuclear receptor ROR-gamma (Homo sapiens, UniProt P51449)
T1 sequence (P51449 whole entry): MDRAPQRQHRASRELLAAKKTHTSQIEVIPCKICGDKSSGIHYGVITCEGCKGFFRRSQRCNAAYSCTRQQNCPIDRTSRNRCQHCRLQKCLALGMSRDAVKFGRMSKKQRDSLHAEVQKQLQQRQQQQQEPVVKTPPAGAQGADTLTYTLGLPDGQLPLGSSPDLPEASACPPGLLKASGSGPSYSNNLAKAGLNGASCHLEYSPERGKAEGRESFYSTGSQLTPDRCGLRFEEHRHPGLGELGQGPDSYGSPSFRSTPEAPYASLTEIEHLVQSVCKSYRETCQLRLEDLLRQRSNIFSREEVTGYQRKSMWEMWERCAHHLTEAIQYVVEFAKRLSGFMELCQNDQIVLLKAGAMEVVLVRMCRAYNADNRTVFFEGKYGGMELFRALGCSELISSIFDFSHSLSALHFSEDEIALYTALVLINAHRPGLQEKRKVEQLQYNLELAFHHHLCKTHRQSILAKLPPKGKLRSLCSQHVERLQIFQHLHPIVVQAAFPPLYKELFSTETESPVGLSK
Assay: GAL4-RORgamma Transactivation: The RORγ transactivation model was developed from the line HG5LN, which is a HeLa line that stably expresses a luciferase reporter gene controlled by a pentamer of the GAL4 recognition domain of yeast and of a β-globin promoter. The HG5LN line was stably transfected by the DNA-binding domain (DBD) of GAL4 fused to the ROR gamma ligand-binding domain (LBD). Molecules that inhibit the ROR gamma constitutive activity reduce the luciferase expression, thus leading to a reduction in the emitted luminescence.The cells are seeded in 384-well plates (5000 cells in 45 μL/well of culture medium containing 10% fetal calf serum) and incubated for 4 hours at 37° C., 5% CO2. 5 μL of the test molecules (compounds described in the tables described above) are then added to each well and the plates are incubated for 18 hours at a temperature of 37° C. under 5% of CO2. 20 μL of luciferase substrate (Promega) are added to each well and the luminescence emitted is read by a microplate reader.The luminescence units (“RLU”) are normalized by positive controls (“POS” containing a saturated concentration of benzenesulfonamide, N-(2,2,2-trifluoroethyl)-N-[4-[2,2,2-trifluoro-1-hydroxy-1-(trifluoromethyl)ethyl]phenyl]) and negative controls (“NEG” containing DMSO): % inhibition=((RLU−NEG)*100)/(POS−NEG). The IC50 values are calculated from a 4-parameter logistic model using the XLFit software (IDBS).

| IC50 [nM] | SMILES |
| --- | --- |
| > 1000 | CCc1ccc(N(CC(C)C)S(=O)(=O)c2ccc3c(c2)N(CC2CCOCC2)CCS3(=N)=O)cc1 (stereo not drawn) |
| > 1000 | CCc1ccc(N(CC(C)C)S(=O)(=O)c2ccc(NC3CCNC(=O)C3)c(S(C)(=N)=O)c2)cc1 (stereo not drawn) |
| < 100 | CCc1ccc(N(CC(C)C)S(=O)(=O)c2ccc(OCC3CCSCC3)c(S(C)(=N)=O)c2)cc1 (stereo not drawn) |
